Laboratory results reported in patent US4031243A, “2-(4-Isobutyl phenyl)butyric acid, salts thereof, and pharmaceutical compositions containing the same” (priority 1975, dated 1977).

How the values were obtained:
gastric lining = experiment: General statements on toxicity, gastric tolerance and activity; conditions: capsule, 100 to 300 milligrams, with talcum and magnesium stearate
[1] = Dissolution of capsule in the stomach (statement); type: physicochemical; conditions: 100 to 300 milligrams, with talcum and magnesium stearate
mucosa = experiment: Ulcerogenic assay; type: in vivo, rat; conditions: 20 rats, scale 0 no ulcers to 3 ulceration with craters
From the text: (§1) Described by S. Wong, J. F. Gardocki and T. P. Pruss in J. Pharm. Exper.
(§2) UD50 represents the dose in milligrams per kilogram of body weight that is based upon a point scale as follows:
(§3) 3 -- ulceration with craters
(§4) U.S. 50 Half ulcerogenic dose -- dose which produces 50% of the
(§5) maximum possible score points in one group of rats.

[2] = Analgesic activity: Hot-plate test; type: in vivo; conditions: for Reaction time Half ± SEM: control 103.3 ± 7.9
[3] = Analgesic activity: Tail pinch test in the mouse; type: in vivo; conditions: for ED50: Mus musculus; for Animals Not protected, TOTALS / Animals Protected, TOTALS: all doses (60-240 mg/kg)
From the text: Analgesic activity: Tail pinch test in the mouse Described by F. Haffner in Deutsch. med. […] ED50 in this test represents the effective dose in milligrams per kilogram of body weight that is required to increase the reaction time by a factor of at least 3 over the reaction time of the same animal before the test substance had been administered.

granulation tissue = experiment: Antiinflammatory activity: Formation of granulation tissue in the rat; type: in vivo; conditions: oral; for ED50: Rattus norvegicus, 50% inhibition of granulation tissue, lineal regression; for Weight of granulated tissue ± SEM: control 198 ± 3.63, in mg (unit assumed)
From the text: Antiinflammatory activity: Formation of granulation tissue in the rat
Described by N. Pisanti, G. Volterra and A. Meli, in a paper entitled "Pharmacological data on a new antiinflammatory agent", published in Il Farmaco(Ed. Scientifica) vol. 38, page 51 (1973).
ED50 in this test represents the effective dose in milligrams per kilogram of body weight that is required to inhibit by an increment of 50% the formulation of granulation tissue in the rat.

[4] = system: edema produced by administration of carageenin; experiment: animal or person; type: in vivo, rat; design: Increment of Edema ± SEM: unit not given here; conditions: for ED50: Rattus norvegicus, lineal regression; for "+" animals, printed in place of increment of edema: rat, in vivo
From the text: Antiinflammatory activity: Acute rat paw edema test Described by C. H. Winter, E. A. Risley and G. W. Nuss in a paper entitled "[…]-induced edema in hind paw of the rat as an assay for antiinflammatory drugs", published in Proc. Soc. Exp. Biol. Med., volume 111, page 544 (1962). ED50 in this test represents the effective dose in milligrams per kilogram of body weight that is required to inhibit edema produced by administration of carageenin to the rat.

Ulcerogenic assay = type: in vivo, rat; conditions: rat, in vivo; dose which produces 50% of the maximum possible score points in one group of rats; lineal regression; read-out: UD50 (the source's name)
From the text: as §1, §2, §3, §4, §5

[5] = 144 h, Table 2, oral, administration 6 days
[6] = Table 1, oral, 120 mg/kg, control 14.80 ± 0.94
[7] = Table 1, oral, 180 mg/kg, control 14.80 ± 0.94
[8] = Table 1, oral, 240 mg/kg, control 14.80 ± 0.94
[9] = Table 2, oral, 120 mg/kg, administration 6 days
[10] = Table 2, oral, 120 mg/kg, administration 6 days, control 15.35 ± 0.31
[11] = Table 2, oral, 180 mg/kg, administration 6 days
[12] = Table 2, oral, 180 mg/kg, administration 6 days, control 15.35 ± 0.31
[13] = Table 2, oral, 240 mg/kg, administration 6 days
[14] = Table 2, oral, 240 mg/kg, administration 6 days, control 15.35 ± 0.31
[15] = Table 3, I.P., 120 mg/kg, control 12.50 ± 1.66

SMILES: CCC(C(=O)[O-])c1ccc(CC(C)C)cc1.[Na+] (centres unmarked)
- gastric upset or irritation (gastric lining): without producing a gastric upset or irritation
- dissolution in the stomach [1]: dissolves well in the stomach

SMILES: CCC(C(=O)O)c1ccc(CC(C)C)cc1 (centres unmarked) [2-(4-Isobutylphenyl)butyric acid, 2-(4-isobutylphenyl) butyric acid]
- Point score (mucosa; 60 mg/kg/day): 2
- Point score (mucosa; 120 mg/kg/day): 7
- Point score (mucosa; 240 mg/kg/day): 14
- % Increase of Reaction time ([2]; oral, 60 mg/kg): 7.0%
- Reaction time Half ± SEM ([2]; oral, 60 mg/kg): 110.6 ± 7.0 s
- % Increase of Reaction time ([2]; oral, 120 mg/kg): 35.0%
- Reaction time Half ± SEM ([2]; oral, 120 mg/kg): 139.5 ± 10.7 s
- % Increase of Reaction time ([2]; oral, 180 mg/kg): 37.0%
- Reaction time Half ± SEM ([2]; oral, 180 mg/kg): 142.3 ± 7.6 s
- % Increase of Reaction time ([2]; oral, 240 mg/kg): 78.4%
- Reaction time Half ± SEM ([2]; oral, 240 mg/kg): 184.3 ± 13.1 s
- ED50 ([2]; oral, increase by 50% of reaction time, lineal regression, read-out: ED50): 162 mg/kg
- ED50 ([3]; oral, reaction time increased by factor of at least 3, lineal regression, read-out: ED50): 118 mg/kg
- % Protection ([3]; oral, 60 mg/kg): 15%
- Animals Not protected ([3]; oral, 60 mg/kg): 17
- Animals Protected ([3]; oral, 60 mg/kg): 3
- % Protection ([3]; oral, 120 mg/kg): 50%
- Animals Not protected ([3]; oral, 120 mg/kg): 10
- Animals Protected ([3]; oral, 120 mg/kg): 10
- % Protection ([3]; oral, 180 mg/kg): 70%
- Animals Not protected ([3]; oral, 180 mg/kg): 6
- Animals Protected ([3]; oral, 180 mg/kg): 14
- % Protection ([3]; oral, 240 mg/kg): 90%
- Animals Not protected ([3]; oral, 240 mg/kg): 2
- Animals Protected ([3]; oral, 240 mg/kg): 18
- Animals Not protected, TOTALS ([3]; oral): 35
- Animals Protected, TOTALS ([3]; oral): 45
- ED50 (granulation tissue): 252 mg/kg
- % Inhibition (granulation tissue; 120 mg/kg): 11.11%
- Weight of granulated tissue ± SEM (granulation tissue; 120 mg/kg): 176 ± 13.09
- % Inhibition (granulation tissue; 180 mg/kg): 34.34%
- Weight of granulated tissue ± SEM (granulation tissue; 180 mg/kg): 130 ± 8.54
- % Inhibition (granulation tissue; 240 mg/kg): 46.46%
- Weight of granulated tissue ± SEM (granulation tissue; 240 mg/kg): 106 ± 9.97
- ED50 [4, 5]: 204 mg/kg
- ED50 ([4]; ip, Table 3, I.P.): 133 mg/kg
- ED50 ([4]; Table 1, oral): 116 mg/kg
- % Inhibition ([4]; Table 1, oral, 120 mg/kg): 51.01%
- Increment of Edema ± SEM [4, 6]: 7.25 ± 1.00
- % Inhibition ([4]; Table 1, oral, 180 mg/kg): 58.10%
- Increment of Edema ± SEM [4, 7]: 6.20 ± 0.84
- % Inhibition ([4]; Table 1, oral, 240 mg/kg): 66.21%
- Increment of Edema ± SEM [4, 8]: 5.00 ± 0.97
- % Inhibition [4, 9]: 24.03%
- Increment of Edema ± SEM [4, 10]: 11.66 ± 0.67
- % Inhibition [4, 11]: 40.97%
- Increment of Edema ± SEM [4, 12]: 9.06 ± 0.39
- % Inhibition [4, 13]: 60.06%
- Increment of Edema ± SEM [4, 14]: 6.13 ± 0.35
- % Inhibition ([4]; Table 3, I.P., 120 mg/kg): 49.36%
- Increment of Edema ± SEM [4, 15]: 6.33 ± 0.88
- % Inhibition ([4]; Table 3, I.P., 240 mg/kg): 64.00%
- Increment of Edema ± SEM ([4]; Table 3, I.P., 240 mg/kg, control 12.50 ± 1.66): 4.50 ± 1.05
- % Inhibition ([4]; Table 3, I.P., 360 mg/kg): 92.96%
- Increment of Edema ± SEM ([4]; Table 3, I.P., 360 mg/kg, control 12.50 ± 1.66): 0.88 ± 0.26

SMILES: CC(=O)Oc1ccccc1C(=O)O [Aspirin, reference compound]
- % Increase of Reaction time ([2]; oral, 120 mg/kg): 22.7%
- Reaction time Half ± SEM ([2]; oral, 120 mg/kg): 126.8 ± 13.7 s
- % Increase of Reaction time ([2]; oral, 180 mg/kg): 57.4%
- Reaction time Half ± SEM ([2]; oral, 180 mg/kg): 162.6 ± 8.0 s
- % Increase of Reaction time ([2]; oral, 240 mg/kg): 69.5%
- Reaction time Half ± SEM ([2]; oral, 240 mg/kg): 175.1 ± 5.9 s
- ED50 ([2]; po): 173 mg/kg
- ED50 ([3]; po): 115 mg/kg
- % Protection ([3]; oral, 60 mg/kg): 13.3%
- Animals Not protected ([3]; oral, 60 mg/kg): 13
- Animals Protected ([3]; oral, 60 mg/kg): 2
- % Protection ([3]; oral, 120 mg/kg): 53.3%
- Animals Not protected ([3]; oral, 120 mg/kg): 7
- Animals Protected ([3]; oral, 120 mg/kg): 8
- % Protection ([3]; oral, 180 mg/kg): 73.3%
- Animals Not protected ([3]; oral, 180 mg/kg): 4
- Animals Protected ([3]; oral, 180 mg/kg): 11
- % Protection ([3]; oral, 240 mg/kg): 93.3%
- Animals Not protected ([3]; oral, 240 mg/kg): 1
- Animals Protected ([3]; oral, 240 mg/kg): 14
- Animals Not protected, TOTALS ([3]; oral): 25
- Animals Protected, TOTALS ([3]; oral): 35

SMILES: CCCCC1C(=O)N(c2ccccc2)N(c2ccccc2)C1=O [Phenylbutazone, reference compound]
- Point score (mucosa; 60 mg/kg/day): 8
- Point score (mucosa; 120 mg/kg/day): 17
- Point score (mucosa; 240 mg/kg/day): 32
- TD50 (Ulcerogenic assay): 226 mg/kg
- ED50 (granulation tissue): 264 mg/kg
- % Inhibition (granulation tissue; 120 mg/kg): 15.65%
- Weight of granulated tissue ± SEM (granulation tissue; 120 mg/kg): 167 ± 8.25
- % Inhibition (granulation tissue; 180 mg/kg): 35.35%
- % Inhibition (granulation tissue; 240 mg/kg): 44.94%
- Weight of granulated tissue ± SEM (granulation tissue; 240 mg/kg): 109 ± 8.77
- ED50 [4, 5]: 177 mg/kg
- ED50 ([4]; Table 1, oral): 77.1 mg/kg
- % Inhibition ([4]; Table 1, oral, 120 mg/kg): 56.08%
- Increment of Edema ± SEM [4, 6]: 6.50 ± 1.02
- % Inhibition ([4]; Table 1, oral, 180 mg/kg): 64.86%
- Increment of Edema ± SEM [4, 7]: 5.20 ± 0.41
- % Inhibition ([4]; Table 1, oral, 240 mg/kg): 70.94%
- Increment of Edema ± SEM [4, 8]: 4.30 ± 0.89
- % Inhibition [4, 9]: 34.85%
- Increment of Edema ± SEM [4, 10]: 10.00 ± 0.73
- % Inhibition [4, 11]: 42.28%
- Increment of Edema ± SEM [4, 12]: 8.86 ± 0.36
- % Inhibition [4, 13]: 69.64%
- Increment of Edema ± SEM [4, 14]: 4.66 ± 0.54
- % Inhibition ([4]; Table 3, I.P., 120 mg/kg): 45.36%
- Increment of Edema ± SEM [4, 15]: 6.83 ± 0.94
- "+" animals, printed in place of increment of edema ([4]; ip, 240 mg/kg): + four animals
- "+" animals, printed in place of increment of edema ([4]; ip, 360 mg/kg): + five animals
